Assay results as given in patent US20180363057A1, “METHOD FOR EVALUATING INDIVIDUAL RADIOSENSITIVITY AND THE RISK OF ADVERSE EFFECTS” (COMMISSARIAT A L'ENERGIE ATOMIQUE ET AUX ENERGIES …, priority 2015, published 2018).

B1: rh-sTRAIL: recombinant human soluble TRAIL, from R&D Systems (protein, UniProt P50591 39-281, looked up)
extracellular domain: TNELKQMQDKYSKSGIACFLKEDDSYWDPNDEESMNSPCWQVKWQLRQLVRKMILRTSEETISTVQEKQQNISPLVRERGPQRVAAHITGTRGRSNTLSSPNSKNEKALGRKINSWESSRSGHSFLSNLHLRNGELVIHEKGFYYIYSQTYFRFQEEIKENTKNDKQMVQYIYKYTSYPDPILLMKSARNSCWSKDAEYGLYSIYQGGIFELKENDRIFVSVTNEHLIDMDHEASFFGAFLVG
modifications: extracellular domain
notes: recombinant human soluble TRAIL, from R&D Systems

Legend:
Format in all cases: cell-based, human
[1] = test system: mTRAIL; test: Cell-surface mTRAIL (CD253) level by flow cytometry on T4EM lymphocytes; conditions: 80 μg/ml
Source text: TRAIL can be soluble (sTRAIL) or membrane-bound (mTRAIL)(Schneider et al., 1998, J. Exp. Med. 187:1205-1213; Wajant et al., 2001, Oncogene. 20:4101-4106). Under the experimental conditions used for radiation-induced apoptosis of T4EM lymphocytes, the levels of sTRAIL in media were below sandwich ELISA detection level (<20 pg/ml; data not shown). The inventors thus focused their study on mTRAIL. Using a monoclonal antibody panel comprising CD253, they measured the level of cell-surface mTRAIL expression by flow cytometry. A four-fold higher expression of mTRAIL was found on T4EM lymphocytes of “sensitive” compared to “resistant” samples (FIG. 3 A). […]
(§1) Treated cells were collected and washed with AnnexinV buffer (140mM NaCl, 5mM CaCl2, 10 mM HEPES; ph7.4), and stained with 2.5 μl AnnexinV-FITC in combination with fluorochrome-conjugated CD markers in 100 ul for 30 min. […] For CD253 (mTRAIL) quantification, a compact panel designed to limit the need for compensation including AnnexinV, CD253, CD3, CD4, and CD62L was used.
Cells were washed in AnnexinV-buffer and just prior flow cytometry, 50 μL of AnnexinV-buffer containing 0.2 μg/mL Hoechst 33258 (Molecular Probes, Eugene, Oreg.), was added for dead cell exclusion. Samples were analyzed using a three-laser CyAn LX system, (DakoCytomation, Fort Collins, Colo.) or a 5-laser SORP LSRII (Becton Dickinson). […]

[2] = test system: T4EM lymphocytes; test: 1,10-phenanthroline induced apoptosis of T4EM lymphocytes (AnnexinV); conditions: for Effect on 1,10-phenanthroline induced apoptosis of T4EM lymphocytes: 80 μg/ml 1,10-phenanthroline, 2 hours, 4 μg/ml rh-sTRAIL or rh-sDR5
Protocol: Cell suspensions at approximately 5×10^5 cells/ml (or at cell densities specified in the results section) in RPM11640/15% FCS, were irradiated at a dose rate of approximately 0.5 Gy/min with a ^137Cs-source (IBL637; Cis-Bio international/Scherring, Saclay, France), where incubated in the presence of indicated concentrations of recombinant human soluble TRAIL (rh-sTRAlL), recombinant human soluble DR5 (rh-sDR5), anti-TRAIL cytotoxicity-blocking antibody (CD253; clone RIK-2), or of 1,10-phenanthroline (stock solution of 200 mM in DMSO). All experiments described were performed with the same batch of heat inactivated FCS, previously tested for compatibility with our experimental procedures. Incubations of 18 hours or less as specified in results section were at 37° C. and 5% CO2.
as §1
Cells were washed in AnnexinV-buffer and just prior flow cytometry, 50 μL of AnnexinV-buffer containing 0.2 μg/mL Hoechst 33258 (Molecular Probes, Eugene, Oreg.), was added for dead cell exclusion. Samples were analyzed using a three-laser CyAn LX system, (DakoCytomation, Fort Collins, Colo.) or a 5-laser SORP LSRII (Becton Dickinson). […] All fluorescence signals were log-amplified, and stored in listmode. CompBeads (Becton Dickinson) were used to assist in determination of spill-over in every individual experiment (CD3-FITC was used instead of AnnexinV-FITC) and Fluorescence Minus One (FMO) controls were used where needed, in particular for mTRAIL quantifications (SortWare; Becton Dickinson or Flowjo version 9.6.4; Treestar, Ashland, Oreg.). […]
Data was analyzed using Flowio. […] Subsequently, dead cells were excluded on the basis of HO33258 fluorescence. T Lymphocytes were identified on the basis of positive PETxR (CD3) fluorescence. […]

[3] = test system: TRAIL-receptor DR5; test: Expression of proapoptotic TRAIL-receptor DR5 in T4EM lymphocytes; conditions: after 1,10-phenanthroline treatment; data not shown
Source text: All fluorochrome-coupled monoclonal antibodies were used at saturating conditions, as determined by titrations. Anti-human CD antibodies came from Becton Dickinson ImmunoCytometry Systems (CD62L-PE, CD62L-PECy5.1, CD14-PECy5.1, CD-235a-PECy5.1, CD27-PECy5.1, CD4-PECy7, CD19-PECy7, CD45RA-APC, CD8-APCH7), from Beckman Coulter (CD3-PETxR) from Biolegend (CD253/TRAIL-PE, CD62L- BV421, CD3-BV605), or from R&D Systems (CD262/DR5-APC). Recombinant human soluble TRAIL (rh-sTRAIL) and recombinant human soluble DR5 ([…] was from R&D Systems, AnnexinV-FITC from Becton Dickinson, and 1,10-phenanthroline from Sigma-Aldrich.

[4] = test system: T4EM lymphocytes; test: Radiation-induced apoptosis of T4EM lymphocytes (AnnexinV labeling, flow cytometry); conditions: 0.4 μg/ml rh-sTRAIL, 18 hours after irradiation at 0, 0.5, 1, 2 Gy
Source text: The sensitivity of subpopulations of human T-lymphocytes to ionizing radiation-induced apoptosis was quantified eighteen hours after irradiation (0-2 Gy) of PBMC samples of healthy blood donors using the previously defined radio sensitivity assay based on immunophenotyping and AnnexinV-labeling. […] Exponential regression coefficients of dose-survival curves were used to classify human PBMC samples according to the radio sensitivity of their T4EM lymphocyte subpopulation, and “sensitive” and “resistant” samples were defined at the two ends of the T4EM radio sensitivity phenotype distribution. […]
as §1
Cells were washed in AnnexinV-buffer and just prior flow cytometry, 50 μL of AnnexinV-buffer containing 0.2 μg/mL Hoechst 33258 (Molecular Probes, Eugene, Oreg.), was added for dead cell exclusion. Samples were analyzed using a three-laser CyAn LX system, (DakoCytomation, Fort Collins, Colo.) or a 5-laser SORP LSRII (Becton Dickinson). […] All fluorescence signals were log-amplified, and stored in listmode. […]

Molecule | mTRAIL level in treated "resistant" samples versus untreated "sensitive" samples ([1]; 2 hours) | mTRAIL expression in T4EM lymphocytes ([1]; two hours after addition, "resistant" and "sensitive" samples) | Induction of apoptosis in T4EM lymphocytes ([2]; 80 μg/ml, two hours, no irradiation) | Expression of proapoptotic TRAIL-receptor DR5 [3] | Effect on 1,10-phenanthroline induced apoptosis of T4EM lymphocytes [2] | Effect on autocrine pro-apoptotic mode of action of mTRAIL in irradiated T4EM lymphocytes [4]
c1cnc2c(c1)ccc1cccnc12 [1,10-phenanthroline] | always remained lower | increase of mTRAIL expression | rapid induction of apoptosis | increased expression |  | 
rh-sDR5: recombinant human soluble DR5 receptor |  |  |  |  | inhibited | 
B1 |  |  |  |  | inhibited | abolished
